{
  "source": "patent US20220170028A1",
  "about": "“NOVEL INTERLEUKIN-2 VARIANTS AND BIFUNCTIONAL FUSION MOLECULES THEREOF” (Cugene Inc, priority 2019, published 2022)",
  "key": {"Treg cells [1]": {"test_system": "Treg cells", "assay": "Treg proliferation and expansion in mice after a single s.c. injection of bifunctional constructs (Example 17)", "assay_type": "in vivo, mouse", "settings": "15 nmol/kg single s.c., C57/BL6 mice", "experimental": "IL-2 variant tocilizumab bifunctional proteins P-0536, P-0546, P-0559, and P-0560 along with IL-2 variant Fc fusion protein P-0511 were administered to mice, and their ability to preferentially proliferate and expand regulatory T cells (CD4+CD25+FoxP3+ T cells) over effector T cells and NK cells were determined in vivo.\nFemale C57/BL6 mice (7-week old) were received from Charles River Laboratory and acclimated in house for at least 7 days before the study. Vehicle (PBS) and 15 nmol/kg each test compounds were subcutaneously administered to mice on day 0. Peripheral blood samples were collected into heparin-treated tubes on days 2, 4 and 8 post-treatment. Each group contained 5 mice and baseline blood was collected 3 days prior to the treatment (day −3)."}, "[2]": {"test_system": "STAT5 phosphorylation in CD8+ T cells", "assay": "STAT5 phosphorylation in CD8+ T cells, human PBMC", "assay_type": "cell-based", "source_text": "(§1) The Stat5 phosphorylation activity on other responder cells than CD4+ T cell subsets, including CD8+T and NK, by P-0511 was compared to P-0531, the S125I equivalent of wild-type P-0250. […] IL-2 receptors expressed on CD4+ Tconv, CD8+T and NK cells are primarily dimeric IL-2Rs, comprising IL-2R6 and γc."}, "[3]": {"test_system": "KLH-induced DTH in Balb/C mice", "assay": "KLH-induced delayed-type hypersensitivity (DTH) mouse model, ear thickness", "assay_type": "in vivo", "settings": "for inhibition of ear inflammation (separate study): Q5D", "experimental": "The ability of Treg cells induced by IL-2 variants to suppress T cell antigen-driven inflammation in vivo was assessed in a model of delayed-type hypersensitivity (DTH). Female Balb/C mice (7-week old) were acclimated in house for 7 days and randomized into groups. Subcutaneous administration of vehicle (PBS), P-0511 at either 0.1 mg/kg or 0.3 mg/kg was initiated on day −2 and was given either once every 3 days (Q3D) for three injections or once every 5 days (Q5D) for two injections. Mice were then sensitized with a subcutaneous administration of 100 μg keyhole limpet hemocyanin (KLH) in 200 μl saline on day 0. For Q3D dosing, two more subcutaneous injections of PBS or P-0511 (0.1 or 0.3 mg/kg) were administered on days 1, and 4; for Q5D dosing, one additional s.c. injection of PBS, 0.1 or 0.3 mg/kg P-0511 was administered on day 3. Mice received an intradermal challenge of KLH (5 μg in 10 μl saline) in right ear on day 5. Right ear thickness was measured using a caliper on day 5 prior KLH challenge and daily from day 6 to day 9 corresponding to 24 h, 48 h, 72 h and 96 h post KLH challenge. One group of mice also received 5 mg/kg daily i.p. treatment of dexamethasone from day 5 to day 8 as a positive control.\nKinetics of the DTH response using the change in ear thickness relative to baseline values (Δ ear thickness) at various times after KLH challenge was illustrated in FIG. 23."}, "[4]": {"test_system": "STAT5 phosphorylation in CD4+ Treg cells", "assay": "STAT5 phosphorylation in CD4+ Treg cells, human PBMC assay by FACS", "assay_type": "cell-based", "how_it_was_run": "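Donor PBMCs were starved in serum-free buffer at 4° C for 1 h, then 2×10^5 cells were exposed to serial dilutions of IL-2 variants for 30 min at 37° C. After fixation and permeabilization they were stained for CD4, CD25, FOXP3 and pSTAT5. Read-out is percent pSTAT5+ cells among CD4+/Foxp3+/CD25^high (Treg) or CD4+/Foxp3−/CD25^low (Tconv) cells by flow cytometry.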"}, "[5]": {"test_system": "STAT5 phosphorylation in NK cells", "assay": "STAT5 phosphorylation in CD56+ NK cells, human PBMC", "assay_type": "cell-based", "source_text": "as §1"}, "Treg cells [6]": {"test_system": "Treg cells", "assay": "Dose-response pharmacodynamics of Treg cells in mice after a single injection (Example 10)", "assay_type": "in vivo, mouse", "experimental": "Following a single subcutaneous administration of vehicle (PBS) or P-0511 (1, 0.3, 0.1, or 0.03 mg/kg) to female Balb/C mice (n=5/group), peripheral blood was collected on day −2 as baseline, and post dose on days 3, 5, and 7. On day 7, mice were sacrificed, and spleens were harvested. Blood lymphocyte phenotyping, proliferation and expansion were measured by flow cytometry at each timepoint using fresh whole blood."}},
  "data": [
    {"substance": "P-0511: IL-2 L19H/S125I/Q126E Fc fusion, SEQ ID NO: 213", "values": [
      {"measurement": "potency in inducing Treg cell proliferation and expansion in vivo (in words)", "setting": "Treg cells [1]", "result": "comparable in vivo Treg stimulation efficacy as P-0560"},
      {"measurement": "STAT5 phosphorylation activity in CD8+ T cells (in words)", "setting": "[2]", "result": "nearly completely abolished"},
      {"measurement": "suppression of DTH ear swelling", "setting": "[3]; 0.1 mg/kg s.c., Q3D and Q5D", "result": "did not reach statistical significance at most of the time points"},
      {"measurement": "inhibition of ear inflammation (separate study)", "setting": "[3]; 0.1 mg/kg", "result": "mild"},
      {"measurement": "inhibition of ear inflammation (separate study)", "setting": "[3]; 0.3 mg/kg", "result": "Intermediate"},
      {"measurement": "inhibition of ear inflammation (separate study)", "setting": "[3]; 1 mg/kg", "result": "strong resistance to KLH-induced DTH"},
      {"measurement": "potency in ex vivo cell assay relative to P-0560", "setting": "[4]", "result": "over 100 fold"},
      {"measurement": "STAT5 phosphorylation activity in NK cells (in words)", "setting": "[5]", "result": "nearly completely abolished"},
      {"measurement": "proliferation of Treg cells (percentage of Ki67 positive cells)", "setting": "Treg cells [6]; 0.03 mg/kg single s.c., Balb/C mice", "result": "minimal effect"},
      {"measurement": "Treg/Tconv ratio at peak, based on cell count", "setting": "Treg cells [6]; 0.1 mg/kg", "result": 0.06},
      {"measurement": "Treg as percentage of total lymphocytes at the peak", "setting": "Treg cells [6]; 0.1 mg/kg single dose", "result": 1.4, "unit": "%"},
      {"measurement": "Treg/Tconv ratio at peak, based on cell count", "setting": "Treg cells [6]; 0.3 mg/kg", "result": 0.18},
      {"measurement": "Treg as percentage of total lymphocytes at the peak", "setting": "Treg cells [6]; 0.3 mg/kg single dose", "result": 3.1, "unit": "%"},
      {"measurement": "Treg/Tconv ratio at peak, based on cell count", "setting": "Treg cells [6]; 1 mg/kg", "result": 0.27},
      {"measurement": "Treg as percentage of total lymphocytes at the peak", "setting": "Treg cells [6]; 1 mg/kg single dose", "result": 4.5, "unit": "%"},
      {"measurement": "proliferation of Treg cells (percentage of Ki67 positive cells)", "setting": "Treg cells [6]; 1, 0.3, or 0.1 mg/kg single s.c., Balb/C mice", "result": "dose-dependent increases"},
      {"measurement": "expression of Treg functional markers CD25 and FoxP3 (MFI)", "setting": "Treg cells [6]; single s.c. dose, Balb/C mice", "result": "increased dose-dependently"}
    ]}
  ]
}
